Experimental data taken from publication PMC9280334 (Frontiers in Chemistry, 2022).
Values joined by “and” are separate entries in the source; they are usually repeats but may differ in a detail not shown here. Identical values can stand only once.

Key:
PC12 cells = assay: Neuroprotection against H2O2-induced cell death in PC12 cells (MTT); format: cell-based; details: H2O2 (150 μM)-induced injury, mean ± SEM
Protocol: The cell viability was measured using MTT [3-(4,5-dimethylthiazol-2-yl)-2,5-diphenyl tetrazolium bromide] assay ([Datki et al., 2003]). PC12 cells (from the Iranian Biological Resource Center, IBRC) received different treatments, including no treatment (control), 150 μM H2O2 alone, or 150 μM H2O2 in combination with 0.1–50 μM of the tested compound. The cells were seeded at 1 × 10^4 cells/well and incubated at 37 °C under a 5% CO2 atmosphere for 24 h, then treated with the tested compound and incubated for 3 h. Next, the cells were exposed to H2O2 for 2 h again. The MTT solution (20 μl, 5 mg/ml) was next replaced with the medium and incubated for 4 h. 100 μl of DMSO was added to dissolve the formazan precipitate. Absorbance was then measured at 570 nm using a multi-mode plate reader (Biotek, Winooski, VT). Cell viability is expressed as a percentage relative to the untreated control.

[1] = molecular target: T1, Aβ1-42 and AChE (human recombinant AChE) (Homo sapiens, UniProt P22303); assay: Inhibition of AChE-induced Aβ1-42 aggregation (ThT assay); format: biochemical; details: Aβ1-42 and AChE (0.01 u/ml), compound 100 μM, mean ± SEM of three experiments, read-out: Inhibition of AChE-induced Aβ aggregation
T1 construct: Amyloid-β protein 1–42 (Sigma A9810) was dissolved; purchased Sigma C1682 (AChE); A9810 (Aβ1-42)
Protocol: Amyloid-β protein 1–42 (Sigma A9810) was dissolved in Phosphate Buffer Saline pH 7.4 (PBS, HyClone Thermo Scientific) containing ammonium hydroxide (1%). Aβ1-42 (50 μM) was incubated for 24 h at 37°C for prefibrillation.
(§1) To determine AChE-induced Aβ1-42 aggregation, Aβ1-42 (20 μl) ± human recombinant AChE (0.01 u/ml, Sigma C1682) were added to […] of PBS buffer pH 7.4 including 0.15 M NaCl and 20 μM thioflavin T (ThT). The mixture was incubated at 37°C in the absence and presence of the compounds (100 μM) and the fluorescence intensities were determined. Due to the presence of the tested compounds, inhibition of self- or AChE-induced aggregation percent was determined by the following calculation: [100-((IFi/IFo) × 100)] where IFi and IFo are the fluorescence intensities obtained for Aβ ± AChE in the presence and in the absence of inhibitors.

SH-SY5Y cells [2] = assay: Cytotoxicity on SH-SY5Y cells (MTT); format: cell-based, human; details: for Cytotoxic effect on SH-SY5Y cells: 1 μM; for SH-SY5Y cell viability (% of control): cytotoxic effect, 1 µM compound alone, MTT, mean ± SEM
Protocol: (§2) Cell culture chemicals were purchased from Lonza, HyClone, or Thermo Scientific. Human neuroblastoma SH-SY5Y cells were maintained in Dulbecco’s modified Eagle’s medium (DMEM) supplemented with 10% FBS, 1% L-glutamine, and 1% antibiotic mix at 37°C in a humidified atmosphere containing 5% CO2. Cell viability was determined using a thiazolyl blue tetrazolium bromide [3-(4,5-dimethyl-2-thiazolyl)-2,5-diphenyl-2H-tetrazolium bromide] (MTT) assay ([Datki et al., 2003]). SH-SY5Y cells were seeded into 384-well plates at 3,000 cells per well and treated with novel compounds at a concentration of 1 μM, 3 h prior to the addition of Aβ1–42 (5 μM). After 24 h of incubation, 5 μl of the MTT reagent (5 mg/ml) was added to each well. 40 μl of DMSO was used to dissolve formazan crystals. Absorbance values were measured at 690 and 570 nm using a BMG Omega Fluorostar microplate reader.

SH-SY5Y cells [3] = assay: Neuroprotection against Aβ1-42-induced cytotoxicity in SH-SY5Y cells (MTT); format: cell-based, human; details: for SH-SY5Y cell viability (% of control): 1 µM compound before 5 μM Aβ1-42, MTT, mean ± SEM
Protocol: as §2, with “(MTT) assay ([Datki et al., 2003]).” left out

Aβ1-42 = molecular target: T2, Aβ1-42 (Homo sapiens, UniProt P05067); assay: Inhibition of self-induced Aβ1-42 aggregation (ThT assay); format: biochemical; details: for Inhibition of self-induced Aβ aggregation: Aβ1-42 20 μM, compound 100 μM, after 48 h, ThT, mean ± SEM of three experiments; for Inhibition of Aβ aggregation, fold more effective than the reference drug donepezil: self-induced Aβ aggregation, ThT assay
T2 construct: Amyloid-β protein 1–42 (Sigma A9810) was dissolved; purchased Sigma A9810
Protocol: Inhibitory properties of the compounds on self-induced and AChE-induced aggregation of amyloid-β protein 1–42 was determined using a thioflavin T (ThT)-based fluorescence assay with slight modifications ([Levine, 1993]). The ThT excitation/emission was measured at 448 nm/490 nm at 48 h using a SpectraMax® Microplate Reader. Amyloid-β protein 1–42 (Sigma A9810) was dissolved in Phosphate Buffer Saline pH 7.4 (PBS, HyClone Thermo Scientific) containing ammonium hydroxide (1%). Aβ1-42 (50 μM) was incubated for 24 h at 37°C for prefibrillation.
as §1

AChE (electric eel) = molecular target: T3, AChE (electric eel) (Electrophorus electricus, UniProt O42275); assay: biochemical; format: biochemical; details: for IC50: electric eel AChE, mean ± SEM of three experiments
T3 construct: purchased Sigma-Aldrich
Protocol: (§3) AChE, BuChE, 5,5'-dithiobis (2-nitrobenzoic acid) (DTNB), acetyl- and butyrylthiocholine iodides were purchased from Sigma-Aldrich. Five different concentrations of the corresponding compounds in ethanol-DMSO (9:1) were prepared. […] After 3 min of incubation, the substrate solution (acetylthiocholine iodide or butyrylthiocholine iodide, 0.05 M) was added and then incubated for at least 1 min at 25°C. […] The inhibition curve was obtained by plotting the percentage of enzyme activity (100% for the reference) versus the logarithm of the tested compound concentration. […]

BuChE (equine serum) = molecular target: T4, BuChE (equine serum) (Equus caballus, UniProt P81908); assay: biochemical; format: biochemical; details: for IC50: equine serum BuChE, mean ± SEM of three experiments
T4 construct: purchased Sigma-Aldrich
Protocol: as §3

[4] = ratio of IC50 values vs Donepezil

T3 sequence (O42275 24-633): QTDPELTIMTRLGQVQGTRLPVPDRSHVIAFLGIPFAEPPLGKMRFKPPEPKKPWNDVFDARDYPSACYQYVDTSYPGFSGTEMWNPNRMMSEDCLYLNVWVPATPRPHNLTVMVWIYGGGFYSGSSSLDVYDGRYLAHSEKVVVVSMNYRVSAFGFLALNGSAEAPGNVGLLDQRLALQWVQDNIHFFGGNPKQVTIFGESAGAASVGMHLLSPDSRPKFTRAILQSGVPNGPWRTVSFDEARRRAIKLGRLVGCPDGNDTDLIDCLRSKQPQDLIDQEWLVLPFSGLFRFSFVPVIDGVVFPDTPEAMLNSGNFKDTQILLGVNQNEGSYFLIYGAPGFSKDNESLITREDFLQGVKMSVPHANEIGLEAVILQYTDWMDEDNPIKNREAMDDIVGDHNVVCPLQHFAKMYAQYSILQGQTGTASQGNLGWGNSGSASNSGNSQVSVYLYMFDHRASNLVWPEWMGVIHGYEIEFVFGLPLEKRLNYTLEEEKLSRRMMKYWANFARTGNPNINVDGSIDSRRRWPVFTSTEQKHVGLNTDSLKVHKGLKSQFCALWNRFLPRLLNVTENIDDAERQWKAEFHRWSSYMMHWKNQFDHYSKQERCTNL
T2 sequence (P05067 672-713 limits assumed): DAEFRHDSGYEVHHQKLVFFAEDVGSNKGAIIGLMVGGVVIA
T4 sequence (P81908 whole entry): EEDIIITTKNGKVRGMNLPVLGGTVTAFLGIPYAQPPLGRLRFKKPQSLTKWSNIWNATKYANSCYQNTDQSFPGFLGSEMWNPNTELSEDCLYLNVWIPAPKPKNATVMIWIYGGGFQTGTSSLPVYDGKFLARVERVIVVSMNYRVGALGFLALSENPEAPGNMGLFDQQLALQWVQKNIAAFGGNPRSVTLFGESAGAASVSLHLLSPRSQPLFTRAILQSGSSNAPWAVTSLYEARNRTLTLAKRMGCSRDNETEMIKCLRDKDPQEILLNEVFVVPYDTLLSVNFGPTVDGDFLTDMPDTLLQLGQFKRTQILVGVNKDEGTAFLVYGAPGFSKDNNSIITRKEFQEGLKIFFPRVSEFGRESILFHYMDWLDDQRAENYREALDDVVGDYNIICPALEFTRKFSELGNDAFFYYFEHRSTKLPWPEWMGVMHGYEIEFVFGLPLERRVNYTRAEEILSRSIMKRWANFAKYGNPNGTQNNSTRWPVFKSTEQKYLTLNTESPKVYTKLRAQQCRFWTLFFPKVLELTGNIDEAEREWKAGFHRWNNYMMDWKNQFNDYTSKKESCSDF
T1 sequence (P22303 32-614): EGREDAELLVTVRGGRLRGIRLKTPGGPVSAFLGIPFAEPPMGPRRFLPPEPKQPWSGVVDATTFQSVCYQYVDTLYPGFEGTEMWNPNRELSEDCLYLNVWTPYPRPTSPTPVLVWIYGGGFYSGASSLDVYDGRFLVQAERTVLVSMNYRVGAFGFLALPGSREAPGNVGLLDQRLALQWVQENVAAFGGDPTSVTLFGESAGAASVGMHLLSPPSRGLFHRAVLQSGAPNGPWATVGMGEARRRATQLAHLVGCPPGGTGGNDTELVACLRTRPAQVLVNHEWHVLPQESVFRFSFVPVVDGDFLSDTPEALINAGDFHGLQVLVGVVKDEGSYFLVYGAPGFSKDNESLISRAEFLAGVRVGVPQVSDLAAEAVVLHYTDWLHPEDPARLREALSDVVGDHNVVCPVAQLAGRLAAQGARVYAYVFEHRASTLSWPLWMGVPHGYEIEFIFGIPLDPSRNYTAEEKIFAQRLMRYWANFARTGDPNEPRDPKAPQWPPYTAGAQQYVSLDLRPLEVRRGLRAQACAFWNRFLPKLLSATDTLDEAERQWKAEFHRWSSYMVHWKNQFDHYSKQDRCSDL

Row | SMILES | PC12 cell viability (% of control) (PC12 cells; 0.1 μM compound) | PC12 cell viability (% of control) (PC12 cells; 1 μM compound) | PC12 cell viability (% of control) (PC12 cells; 5 μM compound) | PC12 cell viability (% of control) (PC12 cells; 10 μM compound) | PC12 cell viability (% of control) (PC12 cells; 20 μM compound) | PC12 cell viability (% of control) (PC12 cells; 50 μM compound) | inhibition at 100 µM [1] [%] | Cytotoxic effect on SH-SY5Y cells (SH-SY5Y cells [2]) | SH-SY5Y cell viability (% of control) (SH-SY5Y cells [2]) | SH-SY5Y cell viability (% of control) (SH-SY5Y cells [3]) | Inhibition of self-induced Aβ aggregation (Aβ1-42) [%] | Inhibition of Aβ aggregation, fold more effective than the reference drug donepezil (Aβ1-42) | IC50 (AChE (electric eel)) [nM] | IC50 (BuChE (equine serum)) [nM] | AChE inhibition, times more active than the standard drug Donepezil (AChE (electric eel); [4]) [times] | Neuroprotective effect against Aβ1-42-induced cytotoxicity in SH-SY5Y cells (SH-SY5Y cells [3]; 1 μM) | BuChE inhibition, times more active than the standard drug Donepezil (BuChE (equine serum); [4]) [times]
1 | O=c1oc2ccccc2cc1-c1ccc(OCCC[n+]2ccccc2)cc1.[Br-] [Compound 3a, 1-(3-(4-(2-Oxo-2H-chromen-3-yl)phenoxy)propyl)pyridinium Bromide] | 39.4 ± 1.7 % of control | 42.2 ± 1.3 % of control | 53.6 ± 1.4 % of control | 55.6 ± 0.1 % of control | 57.4 ± 0.4 % of control | 58.3 ± 1.4 % of control | 76 ± 1.6 | no cytotoxic effect | 81.2 ± 10.0 % of control | 79 % of control and 79.1 ± 4.0 % of control | 73.3 ± 15.4 | about 2 fold | 4 | 84 ± 4 |  |  | 
2 | O=c1oc2ccc([N+](=O)[O-])cc2cc1-c1ccc(OCCC[n+]2ccccc2)cc1.[Br-] [Compound 3f, 1-(3-(4-(6-Nitro-2-oxo-2H-chromen-3-yl)phenoxy)propyl)pyridinium Bromide] | 34.1 ± 1.0 % of control | 42.8 ± 1.4 % of control | 43.1 ± 1.5 % of control | 45.0 ± 0.8 % of control | 48.3 ± 0.4 % of control | 50.8 ± 0.6 % of control | 87.2 ± 5.7 | no cytotoxic effect | 83.6 ± 3.4 % of control | 89 % of control and 89.0 ± 9.8 % of control | 84.7 ± 1.6 | about 2 fold | 2 | 24 ± 5 | 7 |  | 
3 | CN(C)c1cc[n+](CCCOc2ccc(-c3cc4cc([N+](=O)[O-])ccc4oc3=O)cc2)cc1.[Br-] [Compound 3t, 4-(Dimethylamino)-1-(3-(4-(6-nitro-2-oxo-2H-chromen-3-yl)phenoxy)propyl)pyridin-1-ium Bromide] | 38.3 ± 0.9 % of control | 45.3 ± 0.7 % of control | 53.6 ± 0.7 % of control | 56.3 ± 1.6 % of control | 68.2 ± 0.1 % of control | 71.8 ± 1.1 % of control | 52.5 ± 4.9 | no cytotoxic effect | 84.8 ± 6.8 % of control | 59.7 ± 2.8 % of control | 66.4 ± 4.7 | about 2 fold | 14 ± 0.9 | 9 ± 0.4 |  | could not protect neuronal cells | 305
